According to PubChem BioAssay (NCI):
Several values for one entry are separate records, joined by “and”; a condition that tells them apart may be missing. Identical values can stand only once.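 Dose response: 5 concentrations. Exposure: 48 h. Format: 96-well plates. Endpoint: linear interpolation; highest concentration if not reached. GI50 marks 50% less growth. Definition used: TGI = concentration required for complete inhibition of growth.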

Key:
Assay in all cases: NCI tumour cell line growth inhibition, 48 h
MALME-3M melanoma = system: MALME-3M melanoma
ACHN renal = system: ACHN renal
NCI/ADR-RES ovarian = system: NCI/ADR-RES ovarian
CAKI-1 renal = system: CAKI-1 renal
XF 498 CNS = system: XF 498 CNS
DMS 273 small cell lung = system: DMS 273 small cell lung
DMS 114 small cell lung = system: DMS 114 small cell lung
SNB-78 CNS = system: SNB-78 CNS
SN12K1 renal = system: SN12K1 renal
M19-MEL melanoma = system: M19-MEL melanoma
SNB-75 CNS = system: SNB-75 CNS
HOP-62 NSCLC = system: HOP-62 NSCLC

| Compound | TGI (MALME-3M melanoma) [µM] | TGI (ACHN renal) [µM] | TGI (NCI/ADR-RES ovarian) [µM] | TGI (CAKI-1 renal) | TGI (XF 498 CNS) | TGI (DMS 273 small cell lung) | TGI (DMS 114 small cell lung) | TGI (SNB-78 CNS) | TGI (SN12K1 renal) [µM] | TGI (M19-MEL melanoma) | TGI (SNB-75 CNS) [µM] | TGI (HOP-62 NSCLC) [µM] | GI50 (XF 498 CNS) [µM] | GI50 (DMS 273 small cell lung) [µM] | GI50 (DMS 114 small cell lung) [µM] | GI50 (SNB-78 CNS) | GI50 (M19-MEL melanoma) [µM] | GI50 (SNB-75 CNS) | GI50 (HOP-62 NSCLC) | GI50 (ACHN renal) [µM] |
| --- | --- | --- | --- | --- | --- | --- | --- | --- | --- | --- | --- | --- | --- | --- | --- | --- | --- | --- | --- | --- |
| CN(CCNC(=O)c1cn(C)c2c1ccc1cc(Cl)ccc12)CCNC(=O)c1cn(C)c2c1ccc1cc(Cl)ccc12 | 4.85 | 9.73 | 3.6 | 4.99 µM | – | – | – | – | – | – | – | – | – | – | – | – | – | – | – | – |
| O=NN(CCCl)C(=O)Nc1ccc(Cl)c(Cl)c1 | > 100 | – | > 100 | > 100 µM | 99.7 µM | > 100 µM | > 100 µM | > 100 µM | > 100 | > 100 µM | > 100 | > 100 | – | – | – | – | – | – | – | – |
| OCCSCc1cc(Cl)cc(Cl)c1O | > 100 | > 100 | > 100 | > 100 µM | – | – | – | – | – | – | – | > 100 | – | – | – | – | – | – | – | – |
| Nc1nccc2c1ncn2C1C=C(CO)C(O)C1O (stereo not drawn) | – | – | – | – | > 1000 µM | > 1000 µM | > 1000 µM | > 1000 µM | – | > 1000 µM | > 1000 | 89.9 | 817 | 6.13 | 2.18 | > 1000 µM | 7.78 | > 1000 µM | 0.408 µM | – |
| CC(C)(C)OC(=O)N1CCCC1C(=O)NCCNc1ccc(NCCNC(=O)C2CCCN2C(=O)OC(C)(C)C)c2c1C(=O)c1ccccc1C2=O (stereo not drawn) | 33 | 31.6 | 29.6 | 36.9 µM | – | – | – | – | – | – | 87.9 | 33.2 | – | – | – | – | – | – | – | – |
| O=[P+](O)c1cccs1 | – | > 100 | – | > 100 µM | > 100 µM | > 100 µM | > 100 µM | – | – | > 100 µM | – | – | – | – | – | – | – | – | – | – |
| O=C1CSc2sc(=S)sc2S1 | > 100 | – | > 100 | – | > 100 µM | > 100 µM | > 100 µM | 99.2 µM | > 100 | > 100 µM | > 100 | > 100 | – | – | – | – | – | – | – | – |
| CCOC(=O)c1c(SC)nc(-c2ccc(Cl)cc2)sc1=N | 49 | > 100 | 73.5 | > 100 µM | – | – | – | – | – | – | 99.4 | 95.7 | – | – | – | – | – | – | – | – |
| Cc1ccc(NC(=O)CC(=O)n2nc(-c3ccccc3)c(N=Nc3ccccc3C(=O)O)c2-c2ccccc2)cc1 | > 100 | > 100 | – | > 100 µM | – | > 100 µM | – | – | – | > 100 µM | – | > 100 | – | – | – | – | – | – | – | – |
| O=C1NC2(NC(=O)C1=O)Nc1ccccc1S2 | > 100 | > 76.1 | – | > 100 µM | – | > 100 µM | 79.8 µM | > 100 µM | – | – | > 100 | > 100 | – | – | – | – | – | – | – | – |
| COc1cccc2c1C(=O)c1c(O)c3c(c(O)c1C2=O)C[C@@](O)(C(C)=O)C[C@@H]3OC1CC(N(C)C)C(O)C(C)O1 (stereo partly drawn) | – | – | 1.87 | 0.56 µM and 0.593 µM | 0.403 µM and 0.0877 µM | 0.204 µM and 0.18 µM | 0.302 µM and 0.274 µM | 1.04 µM and 0.467 µM | 0.0851 | 0.292 µM and 0.039 µM | – | – | – | 0.0054 | < 0.0199 | 0.0302 µM and 0.0169 µM | – | 0.138 µM and 0.0219 µM | 0.117 µM and < 0.0167 µM | 0.00902 |
| CC1C(O)[C@@]2(OC[C@@]34C(=O)CC5(O)[C@H](CCC6Cc7nc8c(nc7C[C@]65C)CC5CC[C@@H]6C7=C[C@H]9O[C@@]%10(O[C@@](C)(CO)C[C@@H]%10O)C(C)[C@@]9(O)[C@]7(C)[C@@H](O)CC6[C@]5(C)C8)C3=CC[C@H]4C2C)OC1(C)C (stereo partly drawn) | 0.0275 | – | > 3.55 | 0.977 µM | – | 0.000455 µM | 0.0942 µM | 3.44 µM | > 3.55 | > 3.55 µM | 0.215 | 0.0015 | – | – | – | – | – | – | – | – |
| COC[C@@H]1Cc2cc(OC)c3c(c2[C@H](c2ccc(OC)c(OC)c2)[C@H]1COC)OCO3 | > 100 | > 100 | – | – | > 100 µM | > 100 µM | > 100 µM | – | – | > 100 µM | 83.2 | – | – | – | – | – | – | – | – | – |
| Cc1cc(O)c2cc3c(O)c(O)ccc3cc2c1 | 3.52 | 5.71 | 5.89 | 6.63 µM | – | – | – | – | – | – | 8.95 | 10.3 | – | – | – | – | – | – | – | – |
